Measurements reported in patent US5591763A, “treatments for diseases characterized by neovascularization” (President and Fellows of Harvard College, priority 1995, dated 1997).
“Also recorded” adds a separate entry of the source. Read-outs that look alike come from different tables or passages of the source.

Experiments:
[1] = tested on: rat vascular smooth muscle cells; assay: cells; assay type: cell-based
Experimental: DNA synthesis assessed by the uptake of [3H]thymidine: Cells are grown in either 48 or 96 wells plates (Costar, Cambridge, Mass.) at 104 and 0.8 10^3 cells per well, respectively, and grown in Dubelcco's modified Eagle's medium (DME, Gibco, Grand Island, N.Y.) supplemented with 10% heat-inactivated calf serum; they are kept at 37° C. in 5% CO2. When they reach confluence, usually between 3 and 4 days, the medium is replaced with DME 0.5% serum to make them quiescent, and mitogenesis assays are performed 24 hours later.
Quiescent cells are exposed to a mitogenic stimulus, such as 10% serum, PDGF (Sigma Co. St. Louis, Mo.), bFGF (Upstate Biotechnologies, Lake Placid, N.Y.), or other appropriate mitogen according to the cell line, and 3 hours later 1 μCi/ml of [3H]thymidine (Dupont, Billerica, Mass. ) is added to the wells, and the cells maintained at 37° C./5% CO2 for additional 21 hours. Then the cells are washed 3 times with DME medium and the acid-precipitable radioactivity is extracted with cold 10% TCA (Sigma, Co). After neutralization with 0.3 N NaOH (Sigma Co.), aliquots are counted in a Packard Tri-Carb Scintillation counter (Packard Instrument, Downer's Grove, Ill.).
Rat vascular smooth muscle cells (murine cell line): Quiescent cells were stimulated with purified growth factors (PDGF and bFGF, […]) and synthesis of DNA was assessed by the incorporation of [3H]thymidine measured 24 hours later.
Cells were stimulated using […] bFGF. […] (FIG. 2)
Other antimycotics were tested for their inhibition of bFGF-stimulated DNA synthesis in rat vascular smooth muscle cells.

[2] = tested on: vascular smooth muscle cells; assay: Proliferation/growth of vascular smooth muscle cells (general statement); assay type: cell-based
endothelial cells = assay: Proliferation of endothelial cells (general statement); assay type: cell-based
[3] = target: T1, Ca^++ activated K channel of human erythrocytes (Homo sapiens, UniProt O15554); assay: Inhibition of Ca++ activated K channel of human erythrocytes, 86Rb influx; assay type: biochemical; settings: for Inhibition of Ca++ activated 86Rb influx by other antimycotics / Order of inhibitory potency, Ca++ activated 86Rb influx: human erythrocytes; for Inhibition of Ca++ activated 86Rb influx by other antimycotics: FIG. 4
T1 construct: Preparation of Human Red Blood Cells: Blood is collected in heparinized tubes; endogenous in cells; host or cells: washed human erythrocytes (red blood cells from heparinized blood)
Experimental: (§1) Preparation of Human Red Blood Cells: Blood is collected in heparinized tubes and centrifuged in a Sorvall centrifuge (RB 5B, Du Pont Instruments,Newtown, Conn.) at 5° C. for 10 minutes at 3000 g. Plasma and buffy coat are carefully removed and the cells washed four times with a washing solution containing 150 mM choline chloride (Sigma Co), 1 mM MgCl2 (Sigma Co),10mM Tris-MOPS (Sigma, Calif.), pH 7.4 at 4° C.(CWS). An aliquot of cells is then suspended in an approximately equal volume of CWS, and from this original cell suspension hematocrit (Hct) and hemoglobin (optical density at 540 nm) are determined.
Methods to Test Inhibitors of the Ca^++ Activated K channel: To test inhibitors of the Ca^++ activated K channel, the channel is activated using the calcium ionophore A23187 (Calbiochem).
By radioisotopic measurement of ^86 Rb influx. The incubation medium is the same but contains 2 mM KCl and 1 μCi/ml of the radioactive tracer ^86 Rb. After spinning the samples through the phthalate layer, the tubes are rapidly frozen (-80° C.) by immersion in methanol-dry ice, the tips of the tubes containing the packed red cells cut, and counted in a Packard Gamma Counter.
(§2) The inhibitory effect of (CLT) on the Ca^++ activated K channel of human erythrocytes was assessed in the presence of 60 μmol A23187/L cell and 100 μMCaCl2.
Other antimycotics were tested for their inhibition of the Ca++ activated 86Rb influx human erythrocytes.

[4] = target: T1, Ca^++ activated K channel of human erythrocytes; assay: Inhibition of Ca++ activated K channel of human erythrocytes, K efflux; assay type: biochemical; settings: 60 μmol A23187/L cell, 100 μM CaCl2
Source text: Ca^++ -sensitive K+ channels have wide distribution among cells, including the human red cell where they were originally discovered and which is the most commonly utilized assay system for activators and inhibitors of the channel for the following reasons: they are readily available, can be easily manipulated in the laboratory, and transport assays can be accurately standardized by reading the hemoglobin concentration of a red cell suspension.
as §1, with “determined. […]” for “determined.”
as §2

[5] = tested on: bovine endothelial (BAEC); assay: Cell growth (surface of culture flask covered by cell monolayer), bovine endothelial cells; assay type: cell-based; settings: 10 μM, 48 hs, without CLT 90±2%
Experimental: (§3) Measurement of cell density in culture plates: Cells of a specific test cell line are seeded at precisely the same low density in culture plates and incubated for approximately 12 hours in DME 10% serum, or other culture medium depending on the cell line tested. […] Alternatively, the cells can be detached from the plate by incubation with trypsin (Sigma, Co.) […] in ethylene diaminotetraacetic acid (ECTA; Sigma, Co); then the cells are counted in an hemocytometer chamber (Fisher, Pittsburgh, Pa.).
(§4) Bovine endothelial (BAEC) and human umbilical vein (HUVEC): Cells were seeded at a low density (2.5×10^5) in cell culture flasks (75 ml flasks) containing DME 10% calf serum (BAEC) or fetal calf serum (HUVEC); after 12 hs, when the cells were attached to the surface of the flasks, CLT (10 μM) or carrier (ethanol) were added to triplicate flasks. After 48 hs cell growth was assessed by optic miscroscopy calculating the surface of the culture flask covered by the cell monolayer.

[6] = tested on: vascular smooth muscle cells; assay: Proliferative response to mitogens released from MAC-treated endothelial cells, vascular smooth muscle cells; assay type: cell-based; settings: 10 μM CLT; quiescent vascular smooth muscle cells; conditioned media from MAC treated EC; FIG. 5
Experimental: (§5) CLT inhibits the mitogenic activity released from endothelial cells by activated component. When endothelial cells (EC) in culture (both BAEC and HUVEC) are treated with terminal complement components to form the MAC (membrane attack complex of complement), they release into the culture medium a potent mitogenic activity that stimulates the proliferation of quiescent cells used as indicators of the mitogens. Both, quiescent Swiss 3T3 and vascular smooth muscle cells are stimulated by the mitogens released form EC in response to the MAC (FIG. 5; Halperin et al. unpublished observation). Moreover, immunoprecipitation with specific antibodies has documented that both PDGF and bFGF released from the EC contribute in approximately equal proportion to the mitogenic activity induced by the MAC (data not shown).
(§6) To determine whether CLT inhibited the cell proliferative activity released by the MAC from EC, quiescent 3T3 and vascular smooth muscle cells were stimulated in the presence and absence of 10 μM CLT with conditioned media obtained from MAC treated EC.

Swiss 3T3 cells = assay: Proliferative response to mitogens released from MAC-treated endothelial cells, 3T3 cells; assay type: cell-based; settings: 10 μM CLT; quiescent 3T3 cells; conditioned media from MAC treated EC; FIG. 5
Experimental: as §5, §6

[7] = tested on: human umbilical vein (HUVEC); assay: Cell growth (surface of culture flask covered by cell monolayer), human umbilical vein cells; assay type: cell-based; settings: 10 μM, 48 hs, without CLT 90±2%
Experimental: as §3, §4

17-20 desmolase = settings: cited from earlier work
[8] = hormonal adjuvant for prostate cancer; cited from earlier work
epidermal cells = assay: Growth of epidermal cells (general statement); assay type: cell-based
[9] = tested on: 21- and/or 11-hydroxylase; settings: cited from earlier work
17-hydroxylase = settings: cited from earlier work

kaliotoxin: specific inhibitor of the Ca^++ activated potassium channel
Inhibition of DNA synthesis by other inhibitors of the Ca^++ activated K channel ([1]; FIG. 3): failed to inhibit DNA synthesis | Inhibition of proliferation/growth of vascular smooth muscle cells [2]: do not inhibit proliferation | Inhibition of proliferation of endothelial cells (endothelial cells): do not inhibit proliferation

Cc1ncc([N+](=O)[O-])n1CC(O)CCl (stereo not drawn) [ornidazole]
Inhibition of Ca++ activated 86Rb influx by other antimycotics [3]: no inhibition

CCS(=O)(=O)CCn1c([N+](=O)[O-])cnc1C [tinidazole]
Inhibition of Ca++ activated 86Rb influx by other antimycotics [3]: no inhibition

Clc1ccccc1C(c1ccccc1)(c1ccccc1)n1ccnc1 [clotrimazole]
Inhibition of Ca^++ activated K efflux [4]: markedly inhibited | Flask surface covered by cells in the presence of CLT [5]: less than 10% | Dose response of inhibition of DNA synthesis [1]: dose dependent | Inhibition of DNA synthesis [1]: complete inhibition | Inhibition of PDGF stimulated DNA synthesis [1]: completely inhibited | Inhibition of bFGF stimulated DNA synthesis [1]: completely inhibited | Inhibition of bFGF-stimulated DNA synthesis [1]: inhibited DNA synthesis | Order of inhibitory potency, bFGF-stimulated DNA synthesis [1]: CLT more potent than ECZ | Reversibility of the inhibition of DNA synthesis [1]: reversed by removing CLT | inhibition at 1 µM ([1]; Rattus norvegicus, read-out: Inhibition of DNA synthesis): 45% | Inhibition of proliferative response to mitogens released from EC [6]: completely inhibited | Inhibition of Ca^++ activated 86Rb influx ([3]; 60 μmol A23187/L cell, 100 μM CaCl2): markedly inhibited | Order of inhibitory potency, Ca++ activated 86Rb influx [3]: clotrimazole more than miconazole | Inhibition of proliferative response to mitogens released from EC (Swiss 3T3 cells): completely inhibited | Flask surface covered by cells in the presence of CLT [7]: less than 10%

Cc1ncc([N+](=O)[O-])n1CCO [metronidazole]
Inhibition of Ca++ activated 86Rb influx by other antimycotics [3]: only marginal

Clc1ccc(COC(Cn2ccnc2)c2ccc(Cl)cc2Cl)cc1 (stereo not drawn) [econazole]
Order of inhibitory potency, bFGF-stimulated DNA synthesis ([1]; 10 μM, FIG. 3): ECZ more potent than MCZ | Inhibition of bFGF-stimulated DNA synthesis ([1]; antimycotics at 10 μM, FIG. 3): inhibited DNA synthesis | Order of inhibitory potency, Ca++ activated 86Rb influx [3]: both of these were more than econazole

iberiotoxin (QFTDVDCSVSKECWSVCKDLFGVDRGKCMGKKCRCYQ; UniProt P24663 1-37, looked up)
Inhibition of DNA synthesis by other inhibitors of the Ca^++ activated K channel ([1]; FIG. 3): failed to inhibit DNA synthesis | Inhibition of proliferation/growth of vascular smooth muscle cells [2]: do not inhibit proliferation | Inhibition of proliferation of endothelial cells (endothelial cells): do not inhibit proliferation

C[C@@H]1O[C@@H](O[C@H]2C[C@@H](O)[C@]3(CO)[C@H]4[C@H](O)C[C@]5(C)[C@@H](C6=CC(=O)OC6)CC[C@]5(O)[C@@H]4CC[C@]3(O)C2)[C@H](O)[C@H](O)[C@H]1O [ouabain]
Inhibition of proliferation/growth of vascular smooth muscle cells [2]: do not inhibit cell proliferation | Inhibition of proliferation of endothelial cells (endothelial cells): do not inhibit cell proliferation

CC(=O)N1CCN(c2ccc(OCC3COC(Cn4ccnc4)(c4ccc(Cl)cc4Cl)O3)cc2)CC1 (stereo not drawn) [ketoconazole]
Inhibition of 17-20 desmolase (17-20 desmolase): inhibition | Plasma testosterone reduction [8]: reduces plasma testosterone to castration levels | Inhibition of growth of epidermal cells (epidermal cells): ineffective | Inhibition of 21- and/or 11-hydroxylase [9]: marked inhibition | Blockade of 17-hydroxylase (17-hydroxylase): partial blockade | Inhibition of proliferation/growth of vascular smooth muscle cells [2]: not useful for inhibiting; also recorded: ineffective | Inhibition of proliferation of endothelial cells (endothelial cells): not useful for inhibiting

Clc1ccc(COC(Cn2ccnc2)c2ccc(Cl)cc2Cl)c(Cl)c1 (stereo not drawn) [miconazole]
Order of inhibitory potency, bFGF-stimulated DNA synthesis ([1]; 10 μM, FIG. 3): ECZ more potent than MCZ | Inhibition of bFGF-stimulated DNA synthesis ([1]; antimycotics at 10 μM, FIG. 3): inhibited DNA synthesis | Order of inhibitory potency, Ca++ activated 86Rb influx [3]: both of these were more than econazole

charybdotoxin
Inhibition of DNA synthesis by other inhibitors of the Ca^++ activated K channel ([1]; FIG. 3): failed to inhibit DNA synthesis | Inhibition of proliferation/growth of vascular smooth muscle cells [2]: do not inhibit proliferation | Inhibition of proliferation of endothelial cells (endothelial cells): do not inhibit proliferation

OC(Cn1cncn1)(Cn1cncn1)c1ccc(F)cc1F [fluconazole]
Inhibition of Ca++ activated 86Rb influx by other antimycotics [3]: no inhibition

N=C(N)NC(=O)c1nc(Cl)c(N)nc1N [amiloride]
Inhibition of proliferation/growth of vascular smooth muscle cells [2]: do not inhibit cell proliferation | Inhibition of proliferation of endothelial cells (endothelial cells): do not inhibit cell proliferation
